One molecule from PMC13447983, “Identifying and characterising a plant GH1 β‐glucosidase that exhibits hydrolytic activity on N‐linked glucopyranoside” (FEBS Open Bio, 2026) can be followed below.

The target of the test is T1, ZmGlu1 (Zea mays, UniProt P49235).
T1 construct: gene GLU1; E. coli BL21 Star (DE3)
The test can be described thus: HPLC of released methyl anthranilate at […] nm, Michaelis-Menten fit. It counts as biochemical. Particulars: 50 mM phosphate pH 6.0, 35 °C, 3 μM enzyme, 1.17-20 mM substrate.

As a reminder, the Km is the concentration of substrate that gives half-maximal velocity.

Molecules are shown by their SMILES.

T1 sequence (P49235 55-566): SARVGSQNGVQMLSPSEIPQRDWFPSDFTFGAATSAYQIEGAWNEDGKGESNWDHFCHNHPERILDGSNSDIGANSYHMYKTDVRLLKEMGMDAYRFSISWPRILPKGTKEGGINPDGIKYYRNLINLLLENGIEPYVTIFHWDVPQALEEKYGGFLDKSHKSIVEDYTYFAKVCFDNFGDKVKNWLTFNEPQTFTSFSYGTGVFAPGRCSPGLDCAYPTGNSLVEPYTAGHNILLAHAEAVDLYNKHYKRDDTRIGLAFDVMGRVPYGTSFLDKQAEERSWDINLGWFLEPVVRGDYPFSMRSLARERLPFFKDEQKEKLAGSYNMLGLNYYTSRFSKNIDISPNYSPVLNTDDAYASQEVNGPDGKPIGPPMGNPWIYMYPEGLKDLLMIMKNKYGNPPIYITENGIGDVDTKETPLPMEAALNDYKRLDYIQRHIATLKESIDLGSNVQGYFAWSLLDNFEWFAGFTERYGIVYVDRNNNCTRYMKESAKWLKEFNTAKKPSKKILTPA

Regarding `COC(=O)c1ccccc1N[C@@H]1O[C@H](CO)[C@@H](O)[C@H](O)[C@H]1O` [MANT‐N‐glucose, methyl anthranilate‐N‐β‐D‐glucopyranoside], the Km came out at 13.7 ± 1.22 mM.
